According to patent publication US20240376607A1, “METHOD AND COMPOSITION FOR TREATING DILUTION STEAM GENERATOR SYSTEMS” (BL Technologies, Inc., priority 2021, published 2024):
Entries after “also recorded” stand apart in the source; their conditions may differ.

Assay: Electrochemical corrosion rate measurement (Rp/Ec trend) in DSG water
Conditions: DSG Water B, 100 ppm active
Description: Electrochemical measurements were carried out using Gamry 600+ Potentiostat coupled with DC105™ Corrosion Techniques Software. Experiments were performed with a conventional three-electrode electrochemical cell and by employing the Rp/Ec trend technique. All tests were carried out for 24 hours at pH=8.2 to 8.8 and at T=22±0.2° C. (maintained with a recirculating water bath). A Teflon® liner was used to avoid filmer loss to the corrosion cell. The corrosion rates are measured in milli-inch per year (mpy). Pre-cleaned low carbon steel (LCS) coupons having a total surface area of 2.95 in^2 and a density of 7.87 g/cm^3 were used for testing the corrosion inhibitor treatments.

octenyl succinic acid [OSA]
corrosion inhibition (FIG. 1) (LCS coupons): inhibit corrosion; also recorded: not as robust as the Polyamine sample | corrosion rate (FIG. 2) (rate it increases to, 20 hours): 8 mpy
